Experimental data reported in PubChem BioAssay AID1919007 (Molecular Pharmacology Branch, DTP, NCI, 2023).
“And” between values parts separate entries of the source, which are not always exact repeats. Identical values can stand only once.

System: A498 complex spheroids with HUVEC/MSC, growth
Test: Anticancer human tumor A498 cell line growth inhibition [AhR];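 also: seven day exposure starting three days after spheroid seeding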;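 as to viability, T/C: luminescence signal used as a surrogate for viable cells; luminescence viability scaled so 100% equals DMSO vehicle wells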
Conditions: for viability, T/C: stronger effect = lower value
Method in brief: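 Agents were dosed in half-log steps down from roughly clinical Cmax, or from 10 microM where Cmax was unknown, alone and with AhR antagonists. Read-out: percent test/control growth of tumor spheroids containing HUVEC and MSC stromal cells.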

[1] = curve of first compound, second compound 0.1 µM
[2] = curve of first compound, second compound 0.316 µM
[3] = curve of first compound, second compound 1 µM
[4] = curve of first compound, second compound 3.16 µM
[5] = curve of first compound, second compound 10 µM

Structure (SMILES): CCN(c1cc(-c2ccc(CN3CCOCC3)cc2)cc(C(=O)NCc2c(C)cc(C)[nH]c2=O)c1C)C1CCOCC1 + Cc1cncc(-c2nc(NCCc3c[nH]c4ccccc34)c3ncn(C(C)C)c3n2)c1
- IC50 [1]: > 3000 nM
- IC50 [2]: > 3000 nM
- IC50 [3]: > 3000 nM
- IC50 [4]: < 9.49 nM
- IC50 [5]: < 9.49 nM
- viability, T/C (second compound 0.1 µM, first compound 0.00949 µM): 94%
- viability, T/C (second compound 0.1 µM, first compound 0.03 µM): 97%
- viability, T/C (second compound 0.1 µM, first compound 0.0949 µM): 90.2%
- viability, T/C (second compound 0.1 µM, first compound 0.3 µM): 87.7%
- viability, T/C (second compound 0.1 µM, first compound 0.949 µM): 97.7%
- viability, T/C (second compound 0.1 µM, first compound 3 µM): 88.4%
- viability, T/C (second compound 0.316 µM, first compound 0.00949 µM): 103%
- viability, T/C (second compound 0.316 µM, first compound 0.03 µM): 94.2%
- viability, T/C (second compound 0.316 µM, first compound 0.0949 µM): 101%
- viability, T/C (second compound 0.316 µM, first compound 0.3 µM): 90%
- viability, T/C (second compound 0.316 µM, first compound 0.949 µM): 97.4%
- viability, T/C (second compound 0.316 µM, first compound 3 µM): 91.5%
- viability, T/C (second compound 1 µM, first compound 0.00949 µM): 88.8%
- viability, T/C (second compound 1 µM, first compound 0.03 µM): 91.4%
- viability, T/C (second compound 1 µM, first compound 0.0949 µM): 86.1%
- viability, T/C (second compound 1 µM, first compound 0.3 µM): 81.3%
- viability, T/C (second compound 1 µM, first compound 0.949 µM): 82%
- viability, T/C (second compound 1 µM, first compound 3 µM): 88.1%
- viability, T/C (second compound 3.16 µM, first compound 0.00949 µM): 44.6%
- viability, T/C (second compound 3.16 µM, first compound 0.03 µM): 45%
- viability, T/C (second compound 3.16 µM, first compound 0.0949 µM): 47.2%
- viability, T/C (second compound 3.16 µM, first compound 0.3 µM): 44.5%
- viability, T/C (second compound 3.16 µM, first compound 0.949 µM): 45.7%
- viability, T/C (second compound 3.16 µM, first compound 3 µM): 39.5%
- viability, T/C (second compound 10 µM, first compound 0.00949 µM): 4.35%
- viability, T/C (second compound 10 µM, first compound 0.03 µM): 4.58%
- viability, T/C (second compound 10 µM, first compound 0.0949 µM): 6.5%
- viability, T/C (second compound 10 µM, first compound 0.3 µM): 4.8%
- viability, T/C (second compound 10 µM, first compound 0.949 µM): 2.06%
- viability, T/C (second compound 10 µM, first compound 3 µM): 1.26%

Structure (SMILES): NS(=O)(=O)OCC1CC(n2ccc3c(NC4CCc5ccccc54)ncnc32)CC1O (centres undefined) + CC(CO)NC(=O)c1cc(-c2ccc(Cl)cc2)nn(-c2cnn(C)c2)c1=O
- IC50 [1]: 268 nM
- IC50 [2]: 263 nM
- IC50 [3]: 310 nM
- IC50 [4]: 245 nM
- IC50 [5]: 196 nM
- viability, T/C (second compound 0.1 µM, first compound 0.0316 µM): 94.8%
- viability, T/C (second compound 0.1 µM, first compound 0.1 µM): 86%
- viability, T/C (second compound 0.1 µM, first compound 0.316 µM): 42.4%
- viability, T/C (second compound 0.1 µM, first compound 1 µM): 30%
- viability, T/C (second compound 0.1 µM, first compound 3.16 µM): 22.4%
- viability, T/C (second compound 0.1 µM, first compound 10 µM): 17.7%
- viability, T/C (second compound 0.316 µM, first compound 0.0316 µM): 90.9%
- viability, T/C (second compound 0.316 µM, first compound 0.1 µM): 81.8%
- viability, T/C (second compound 0.316 µM, first compound 0.316 µM): 42.9%
- viability, T/C (second compound 0.316 µM, first compound 1 µM): 27.2%
- viability, T/C (second compound 0.316 µM, first compound 3.16 µM): 23.3%
- viability, T/C (second compound 0.316 µM, first compound 10 µM): 17.6%
- viability, T/C (second compound 1 µM, first compound 0.0316 µM): 92%
- viability, T/C (second compound 1 µM, first compound 0.1 µM): 82.4%
- viability, T/C (second compound 1 µM, first compound 0.316 µM): 47.5%
- viability, T/C (second compound 1 µM, first compound 1 µM): 30.8%
- viability, T/C (second compound 1 µM, first compound 3.16 µM): 23.4%
- viability, T/C (second compound 1 µM, first compound 10 µM): 19.8%
- viability, T/C (second compound 3.16 µM, first compound 0.0316 µM): 92.5%
- viability, T/C (second compound 3.16 µM, first compound 0.1 µM): 73.6%
- viability, T/C (second compound 3.16 µM, first compound 0.316 µM): 41.5%
- viability, T/C (second compound 3.16 µM, first compound 1 µM): 29.3%
- viability, T/C (second compound 3.16 µM, first compound 3.16 µM): 20.6%
- viability, T/C (second compound 3.16 µM, first compound 10 µM): 18.3%
- viability, T/C (second compound 10 µM, first compound 0.0316 µM): 79%
- viability, T/C (second compound 10 µM, first compound 0.1 µM): 64.1%
- viability, T/C (second compound 10 µM, first compound 0.316 µM): 39.5%
- viability, T/C (second compound 10 µM, first compound 1 µM): 26%
- viability, T/C (second compound 10 µM, first compound 3.16 µM): 20.9%
- viability, T/C (second compound 10 µM, first compound 10 µM): 17.6%

Structure (SMILES): NS(=O)(=O)OCC1CC(n2ccc3c(NC4CCc5ccccc54)ncnc32)CC1O (centres undefined)
- viability, T/C (compound 0.0316 µM): 96.3% and 93.7% and 99.8%
- viability, T/C (compound 0.1 µM): 93.4% and 87.1% and 85.3%
- viability, T/C (compound 0.316 µM): 56.3% and 53.1% and 37.4%
- viability, T/C (compound 1 µM): 34.4% and 34.5% and 28.6%
- viability, T/C (compound 3.16 µM): 23.7% and 26.2% and 21.3%
- viability, T/C (compound 10 µM): 16.6% and 20% and 16.1%
- IC50 (curve of compound): 474 nM and 421 nM and 239 nM

Structure (SMILES): CC[C@@]1(O)C(=O)OCc2c1cc1n(c2=O)Cc2cc3c(CN(C)C)c(O)ccc3nc2-1
- viability, T/C (compound 0.000316 µM): 97.9% and 107% and 110%
- viability, T/C (compound 0.001 µM): 103% and 111% and 112%
- viability, T/C (compound 0.00316 µM): 112% and 102% (2×)
- viability, T/C (compound 0.01 µM): 86.9% and 93.3% and 98.7%
- viability, T/C (compound 0.0316 µM): 79.8% and 82.3% and 85.8%
- viability, T/C (compound 0.1 µM): 73.1% and 85% and 66.5%
- IC50 (curve of compound): > 100 nM
